Test results published in patent US20110251160A1 (priority 2008, published 2011).
“And” between values parts separate entries of the source, which are not always exact repeats. Equal entries are not always repeated. Where two headings read alike, the source gives them in different places.

Key:
[1] = test system: activated partial thromboplastin time (aPTT), ecarin clotting time, and thrombin clotting time; assay: Clotting time prolongation
[2] = test system: patients with atrial fibrillation at risk of stroke; details: for Stroke, systemic embolism, pulmonary embolism, myocardial infarction death or major bleed, Rate / Stroke, systemic embolism, pulmonary embolism, myocardial infarction death or major bleed, RR: net benefit
Source text: Median follow-up was 2.0 years and the primary outcome was stroke or systemic embolism.
Patients were recruited from 951 clinical centers in 44 countries. In brief, patients were eligible if they had atrial fibrillation documented on electrocardiogram at screening or within 6 months; and at least one of the following: prior stroke or transient ischemic attack; left ventricular ejection fraction less than 40%; New York Heart Association heart failure symptoms of Class 2 or greater within 6 months; age at least 75 years; or age at least 65 years with diabetes mellitus, hypertension or coronary artery disease.
The time in therapeutic range was calculated by the method of Rosendaal (Rosendaal F R, et al., A method to determine the optimal intensity of oral anticoagulant therapy, Thromb Haemost, 1993, 69:236-239), excluding INRs from the first week and after discontinuations. […] Concomitant use of aspirin (less than 100 mg/day) or other antiplatelet agents was allowed.
Liver function testing was performed monthly during the first year of follow-up.
The primary study outcome was stroke or systemic embolism. The primary safety outcome was major hemorrhage. Secondary outcomes were stroke, systemic embolism and death. Other outcomes were myocardial infarction, pulmonary embolism, transient ischemic attacks, and hospitalizations. The primary net benefit-risk outcome was the composite of stroke, systemic embolism, pulmonary embolism, myocardial infarction, death or major hemorrhage. Stroke was defined as sudden onset of focal neurological deficit consistent with the territory of a major cerebral artery and categorized as ischemic, hemorrhagic or unspecified. Hemorrhagic transformation of ischemic stroke was not considered as hemorrhagic stroke. Intracranial hemorrhage included hemorrhagic stroke and sub-dural or sub-arachnoid hemorrhage. Systemic embolism was an acute vascular occlusion of an extremity or organ documented by imaging, surgery or autopsy. Major bleeding was defined as a reduction in hemoglobin level of at least […] or transfusion of at least 2 units of blood or symptomatic bleeding in a critical area or organ. Life-threatening bleeding was a subset of major bleeding that included fatal bleeding, symptomatic intracranial bleeding, bleeding with hemoglobin decrease of more than […] or requiring transfusion of more than 4 units of blood or requiring inotropic agents or necessitating surgery. All other bleeding was considered minor.
All primary and secondary outcome events were blindly and doubly adjudicated. An international team of adjudicators reviewed documents in local languages after blinding; or documents were translated by a independent group and blinded centrally. All transient ischemic attacks were reviewed to ensure that strokes had not been missed. To detect possible unreported events, symptom questionnaires were regularly administered to patients, and adverse events and hospitalization reports were scrutinized for unreported primary or secondary outcomes.
If maximum of the two p-values was greater than 0.025, the minimum of the two p-values must be less than 0.0125, one-sided, to claim statistical significance. All analyses were based on intention-to-treat.

[3] = test system: patients with chronic atrial fibrillation; assay: PETRO study, phase 2 12-week dose finding study; assay type: in vivo, human; details: in vivo
Source text: Primary endpoints were bleeding events and changes in D-dimer. […] Minor bleeding was dose related.

[4] = Clinical pharmacokinetics and pharmacodynamics of dabigatran etexilate; details: human, plasma, oral
Plasma protein binding = assay type: in vitro ADME; details: read-out: Bound to plasma proteins
[5] = in vivo; cited from earlier work
[6] = test system: patients with atrial fibrillation
Experimental: PETRO-Ex began while the PETRO study was ongoing and investigators were initially kept blinded to patient treatment group until PETRO was completed. Unblinding investigators to patient treatment was possible thereafter.
Data were summarized descriptively; no hypothesis was to be tested. Events were analyzed on the basis of the treatment at onset. Incidences were reported as number of patients with events as well as normalized to 100 patient years on the respective treatment.
Patients who completed PETRO on 50 mg b.i.d. were switched to 150 mg q.d. upon entry in the PETRO-Ex study (N=93 patients). […] Patients who were down titrated to 50 mg q.d. based on a glomerular filtration rate ≦50 mL/min during PETRO were excluded from the long-term trial; patients down-titrated in other dose levels remained on the q.d. treatment at that dose.
The former is represented by the number of thromboembolic events per 100 years, the latter by the number of bleeding events per 100 years.

[7] = individual patients with LFT abnormalities, one table line per patient

[H]/N=C(/N)c1ccc(NCc2nc3cc(C(=O)N(CCC(=O)O)c4ccccn4)ccc3n2C)cc1 [Dabigatran]
Prolongation of aPTT, ecarin clotting time, and thrombin clotting time [1]: dose dependent prolongation
All Death, Rate ([2]; Dabigatran 110 mg b.i.d.): 3.74 /100 Person Years
Disabling or Fatal Stroke Modified Rankin 3-6, Rate ([2]; Dabigatran 110 mg b.i.d.): 0.95 /100 Person Years
First Hospitalization, Rate ([2]; Dabigatran 110 mg b.i.d.): 25.1 /100 Person Years
Myocardial Infarction, Rate ([2]; Dabigatran 110 mg b.i.d.): 0.73 /100 Person Years
Non-disabling Stroke Modified Rankin 0-2, Rate ([2]; Dabigatran 110 mg b.i.d.): 0.51 /100 Person Years
Pulmonary embolism, Rate ([2]; Dabigatran 110 mg b.i.d.): 0.12 /100 Person Years
Stroke or systemic embolism, Rate ([2]; Dabigatran 110 mg b.i.d.): 1.55 /100 Person Years
Stroke, Hemorrhagic, Rate ([2]; Dabigatran 110 mg b.i.d.): 0.12 /100 Person Years
Stroke, Rate ([2]; Dabigatran 110 mg b.i.d.): 1.45 /100 Person Years
Vascular Death, Rate ([2]; Dabigatran 110 mg b.i.d.): 2.42 /100 Person Years
All Death, RR ([2]; Dabigatran 110 mg vs. Warfarin): 0.90
Disabling or Fatal Stroke Modified Rankin 3-6, RR ([2]; Dabigatran 110 mg vs. Warfarin): 0.94
First Hospitalization, RR ([2]; Dabigatran 110 mg vs. Warfarin): 0.92
Myocardial Infarction, RR ([2]; Dabigatran 110 mg vs. Warfarin): 1.35
Non-disabling Stroke Modified Rankin 0-2, RR ([2]; Dabigatran 110 mg vs. Warfarin): 0.87
Pulmonary embolism, RR ([2]; Dabigatran 110 mg vs. Warfarin): 1.26
Stroke or systemic embolism, RR ([2]; Dabigatran 110 mg vs. Warfarin): 0.91
Stroke, Hemorrhagic, RR ([2]; Dabigatran 110 mg vs. Warfarin): 0.31
Stroke, Ischemic or Unspecified, RR ([2]; Dabigatran 110 mg vs. Warfarin): 1.12
Stroke, RR ([2]; Dabigatran 110 mg vs. Warfarin): 0.92
Vascular Death, RR ([2]; Dabigatran 110 mg vs. Warfarin): 0.90
All Death, Rate ([2]; Dabigatran 150 mg b.i.d.): 3.63 /100 Person Years
Disabling or Fatal Stroke Modified Rankin 3-6, Rate ([2]; Dabigatran 150 mg b.i.d.): 0.67 /100 Person Years
First Hospitalization, Rate ([2]; Dabigatran 150 mg b.i.d.): 26.7 /100 Person Years
Myocardial Infarction, Rate ([2]; Dabigatran 150 mg b.i.d.): 0.74 /100 Person Years
Non-disabling Stroke Modified Rankin 0-2, Rate ([2]; Dabigatran 150 mg b.i.d.): 0.36 /100 Person Years
Pulmonary embolism, Rate ([2]; Dabigatran 150 mg b.i.d.): 0.15 /100 Person Years
Stroke or systemic embolism, Rate ([2]; Dabigatran 150 mg b.i.d.): 1.11 /100 Person Years
Stroke, Hemorrhagic, Rate ([2]; Dabigatran 150 mg b.i.d.): 0.10 /100 Person Years
Stroke, Ischemic or Unspecified, Rate ([2]; Dabigatran 150 mg b.i.d.): 0.92 /100 Person Years
Stroke, Rate ([2]; Dabigatran 150 mg b.i.d.): 1.01 /100 Person Years
Vascular Death, Rate ([2]; Dabigatran 150 mg b.i.d.): 2.27 /100 Person Years
All Death, RR ([2]; Dabigatran 150 mg vs. 110 mg): 0.97
Disabling or Fatal Stroke Modified Rankin 3-6, RR ([2]; Dabigatran 150 mg vs. 110 mg): 0.70
First Hospitalization, RR ([2]; Dabigatran 150 mg vs. 110 mg): 1.06
Myocardial Infarction, RR ([2]; Dabigatran 150 mg vs. 110 mg): 1.02
Non-disabling Stroke Modified Rankin 0-2, RR ([2]; Dabigatran 150 mg vs. 110 mg): 0.71
Pulmonary embolism, RR ([2]; Dabigatran 150 mg vs. 110 mg): 1.27
Stroke or systemic embolism, RR ([2]; Dabigatran 150 mg vs. 110 mg): 0.72
Stroke, Hemorrhagic, RR ([2]; Dabigatran 150 mg vs. 110 mg): 0.85
Stroke, Ischemic or Unspecified, RR ([2]; Dabigatran 150 mg vs. 110 mg): 0.68
Stroke, RR ([2]; Dabigatran 150 mg vs. 110 mg): 0.70
Vascular Death, RR ([2]; Dabigatran 150 mg vs. 110 mg): 0.94
All Death, RR ([2]; Dabigatran 150 mg vs. Warfarin): 0.88
Disabling or Fatal Stroke Modified Rankin 3-6, RR ([2]; Dabigatran 150 mg vs. Warfarin): 0.66
First Hospitalization, RR ([2]; Dabigatran 150 mg vs. Warfarin): 0.97
Myocardial Infarction, RR ([2]; Dabigatran 150 mg vs. Warfarin): 1.38
Non-disabling Stroke Modified Rankin 0-2, RR ([2]; Dabigatran 150 mg vs. Warfarin): 0.62
Pulmonary embolism, RR ([2]; Dabigatran 150 mg vs. Warfarin): 1.61
Stroke or systemic embolism, RR ([2]; Dabigatran 150 mg vs. Warfarin): 0.66
Stroke, Hemorrhagic, RR ([2]; Dabigatran 150 mg vs. Warfarin): 0.26
Stroke, Ischemic or Unspecified, RR ([2]; Dabigatran 150 mg vs. Warfarin): 0.76
Stroke, RR ([2]; Dabigatran 150 mg vs. Warfarin): 0.64
Vascular Death, RR ([2]; Dabigatran 150 mg vs. Warfarin): 0.84
Mortality rate, death from any cause ([2]; dabigatran 110 mg twice daily): 3.74 % per year
Rate of hemorrhagic stroke ([2]; dabigatran 110 mg twice daily): 0.12 % per year
Rate of myocardial infarction ([2]; dabigatran 110 mg twice daily): 0.73 % per year
Rate of net benefit-risk outcome (major vascular events, major bleeding and death) ([2]; dabigatran 110 mg twice daily): 7.37 % per year
Rate of the primary outcome, stroke or systemic embolism ([2]; dabigatran 110 mg twice daily): 1.55 % per year
Mortality rate, death from any cause ([2]; dabigatran 150 mg twice daily): 3.63 % per year
Rate of hemorrhagic stroke ([2]; dabigatran 150 mg twice daily): 0.10 % per year
Rate of myocardial infarction ([2]; dabigatran 150 mg twice daily): 0.74 % per year
Rate of net benefit-risk outcome (major vascular events, major bleeding and death) ([2]; dabigatran 150 mg twice daily): 7.22 % per year
Rate of the primary outcome, stroke or systemic embolism ([2]; dabigatran 150 mg twice daily): 1.11 % per year
Hepatotoxicity ([2]; human, in vivo): no evidence of hepatotoxicity
Stroke, systemic embolism, pulmonary embolism, myocardial infarction death or major bleed, Rate ([2]; Dabigatran 110 mg b.i.d.): 7.37 /100 Person Years
Stroke, systemic embolism, pulmonary embolism, myocardial infarction death or major bleed, RR ([2]; Dabigatran 110 mg vs. Warfarin): 0.92
Stroke, systemic embolism, pulmonary embolism, myocardial infarction death or major bleed, Rate ([2]; Dabigatran 150 mg b.i.d.): 7.22 /100 Person Years
Stroke, systemic embolism, pulmonary embolism, myocardial infarction death or major bleed, RR ([2]; Dabigatran 150 mg vs. 110 mg): 0.98
Stroke, systemic embolism, pulmonary embolism, myocardial infarction death or major bleed, RR ([2]; Dabigatran 150 mg vs. Warfarin): 0.90
Change in D-dimer levels [3]: comparable to warfarin
half-life [4]: 12 to 17 h
fraction unbound (Plasma protein binding): 0.65 to 0.75
Serum half-life [5]: 12 to 17 h
Fatal major bleeds, number ([6]; 150 mg b.i.d.): 4
Fatal major bleeds, number ([6]; 300 mg q.d.): 1
Fatal bleeding events ([6]; all doses): 0.5 % per year
Fatal major bleeds, number ([6]; all doses): five
Intracranial bleed rate ([6]; all doses): 0.4 % per year
LFT abnormality ALT/ULN [6, 7]: >5x xULN (4×) and >5x^# xULN (2×) and >3x xULN (5×) and >3x^# xULN
LFT abnormality AST/ULN [6, 7]: >5x^# xULN (4×) and >5x xULN (4×) and >3x xULN (5×)
